pIC50: −log10 of the molar value. Converted amounts (≈) assume the structure as drawn.
Key:
[1] = target: DNA gyrase (Staphylococcus aureus, UniProt P0A0K8+P20831)
Description: Inhibition of Staphylococcus aureus DNA gyrase supercoiling activity using relaxed pHOT-1 DNA as substrate after 60 mins by ethidium bromide-based gel electrophoresis

[2] = Solubility of the compound in pH 6.8 intestinal juice incubated at 37 degC for 24 hrs by LC/MS/MS analysis; type: physicochemical
[3] = system: Streptococcus pneumoniae; experiment: Antibacterial activity against penicillin-resistant Streptococcus pneumoniae after 18 to 20 hrs by CLSI-protocol based broth microdilution method; type: functional
[4] = system: Staphylococcus aureus; experiment: Antibacterial activity against methicillin-sensitive Staphylococcus aureus after 18 to 20 hrs by CLSI-protocol based broth microdilution method; type: functional; settings: Staphylococcus aureus; read-out: MIC
[5] = system: Staphylococcus aureus; experiment: Antibacterial activity against methicillin-sensitive Staphylococcus aureus infected in Kunming mouse treated with 50 mg/kg cytochrome P450 inhibitor ABT dosed subcutaneously at 0.5 and 4.0 hrs postinfection followed by and measured at 7 to 14 days post treatment by Bliss method; type: functional; settings: sc
[6] = system: Staphylococcus aureus; experiment: Antibacterial activity against methicillin-resistant Staphylococcus aureus after 18 to 20 hrs by CLSI-protocol based broth microdilution method; type: functional
[7] = Solubility of the compound in water incubated at 37 degC for 24 hrs by LC/MS/MS analysis; type: physicochemical
[8] = MRT in CD1 mouse at 10 mg/kg, po by LC-MS/MS analysis; type: ADME, organism-based; settings: in vivo
[9] = target: DNA topoisomerase 2-alpha (Homo sapiens, UniProt P11388); experiment: Inhibition of human topoisomerase-2alpha using catenated DNA as substrate after 30 mins by ethidium bromide-based gel electrophoresis
[10] = system: Staphylococcus epidermidis; experiment: Antibacterial activity against methicillin-sensitive Staphylococcus epidermidis after 18 to 20 hrs by CLSI-protocol based broth microdilution method; type: functional
[11] = AUCt in CD1 mouse at 10 mg/kg, po by LC-MS/MS analysis; type: ADME, organism-based; settings: in vivo
[12] = Solubility of the compound in pH 1.2 gastric juice incubated at 37 degC for 24 hrs by LC/MS/MS analysis; type: physicochemical
[13] = Cmax in CD1 mouse at 10 mg/kg, po by LC-MS/MS analysis; type: ADME, organism-based; design: dose 10 mg/kg, route oral; settings: in vivo
[14] = Elimination half life in CD1 mouse at 10 mg/kg, po by LC-MS/MS analysis; type: ADME, organism-based; settings: in vivo, read-out: beta t1/2 (converted)
[15] = Tmax in CD1 mouse at 10 mg/kg, po by LC-MS/MS analysis; type: ADME, organism-based; settings: in vivo
[16] = system: Neisseria gonorrhoeae; experiment: Antibacterial activity against Neisseria gonorrhoeae after 18 to 20 hrs by CLSI-protocol based agar microdilution method; type: functional
[17] = system: Staphylococcus epidermidis; experiment: Antibacterial activity against methicillin-resistant Staphylococcus epidermidis after 18 to 20 hrs by CLSI-protocol based broth microdilution method; type: functional
[18] = system: Streptococcus pyogenes; experiment: Antibacterial activity against Streptococcus pyogenes after 18 to 20 hrs by CLSI-protocol based broth microdilution method; type: functional
[19] = system: Staphylococcus aureus; experiment: Antibacterial activity against methicillin-resistant Staphylococcus aureus infected in Kunming mouse treated with 50 mg/kg cytochrome P450 inhibitor ABT dosed subcutaneously at 0.5 and 4.0 hrs postinfection followed by and measured at 7 to 14 days post treatment by Bliss method; type: functional; settings: sc
[20] = Elimination half life in Sprague-Dawley rat at 10 mg/kg, po by LC-MS/MS analysis; type: ADME, organism-based; settings: in vivo, read-out: beta t1/2 (converted)
[21] = Elimination half life in Beagle dog at 2.5 mg/kg, iv by LC-MS/MS analysis; type: ADME, organism-based, Canis lupus familiaris; settings: in vivo, read-out: beta t1/2 (converted)
[22] = Elimination half life in Beagle dog at 5 mg/kg, po by LC-MS/MS analysis; type: ADME, organism-based, Canis lupus familiaris; settings: in vivo, read-out: beta t1/2 (converted)
[23] = target: Voltage-gated inwardly rectifying potassium channel KCNH2 (Homo sapiens, UniProt Q12809); experiment: Inhibition of human ERG expressed in CHO cells in at -80 mV holding potential by automated Qpatch clamp assay; type: cell-based
[24] = AUCt in Beagle dog at 2.5 mg/kg, iv by LC-MS/MS analysis; type: ADME, organism-based, Canis lupus familiaris; settings: in vivo
[25] = Cmax in Beagle dog at 5 mg/kg, po by LC-MS/MS analysis; type: ADME, organism-based, Canis lupus familiaris; design: dose 5 mg/kg, route oral; settings: in vivo
[26] = Oral bioavailability in Beagle dog at 5 mg/kg by LC-MS/MS analysis; type: ADME, organism-based, Canis lupus familiaris; settings: in vivo
[27] = AUCt in Sprague-Dawley rat at 100 mg/kg, po by LC-MS/MS analysis; type: ADME, organism-based; settings: in vivo
[28] = system: Staphylococcus aureus; experiment: Antibacterial activity against methicillin-sensitive Staphylococcus aureus infected in Kunming mouse dosed subcutaneously at 0.5 and 4.0 hrs postinfection and measured at 7 to 14 days post treatment by Bliss method; type: functional; settings: sc
[29] = system: Staphylococcus aureus; experiment: Antibacterial activity against methicillin-resistant Staphylococcus aureus infected in Kunming mouse dosed subcutaneously at 0.5 and 4.0 hrs postinfection and measured at 7 to 14 days post treatment by Bliss method; type: functional; settings: sc
[30] = Volume of distribution at steady state in Sprague-Dawley rat at 10 mg/kg, iv by LC-MS/MS analysis; type: ADME, organism-based; settings: in vivo, read-out: Vdss
[31] = Clearance in Beagle dog at 2.5 mg/kg, iv by LC-MS/MS analysis; type: ADME, organism-based, Canis lupus familiaris; settings: in vivo
[32] = AUCt in Sprague-Dawley rat at 10 mg/kg, po by LC-MS/MS analysis; type: ADME, organism-based; settings: in vivo
[33] = Oral bioavailability in Sprague-Dawley rat at 10 mg/kg by LC-MS/MS analysis; type: ADME, organism-based; settings: in vivo
[34] = Cmax in Sprague-Dawley rat at 100 mg/kg, po by LC-MS/MS analysis; type: ADME, organism-based; design: dose 100 mg/kg, route oral; settings: in vivo
[35] = target: Cytochrome P450 2D6 (Homo sapiens, UniProt P10635); experiment: Inhibition of CYP2D6 in human liver microsomes using dextromethorphan as substrate preincubated for 10 mins followed by NADPH addition and measured for 15 mins by LC-MS/MS analysis; type: ADME
[36] = Oral bioavailability in Sprague-Dawley rat at 100 mg/kg by LC-MS/MS analysis; type: ADME, organism-based; settings: in vivo
[37] = AUCt in Sprague-Dawley rat at 10 mg/kg, iv by LC-MS/MS analysis; type: ADME, organism-based; settings: in vivo
[38] = target: T1, Cytochrome P450 1A2 (Homo sapiens, UniProt P05177); experiment: Inhibition of CYP1A2 in human liver microsomes using phenacetin as substrate preincubated for 10 mins followed by NADPH addition and measured for 15 mins by LC-MS/MS analysis; type: ADME
T1 sequence (P05177 whole entry): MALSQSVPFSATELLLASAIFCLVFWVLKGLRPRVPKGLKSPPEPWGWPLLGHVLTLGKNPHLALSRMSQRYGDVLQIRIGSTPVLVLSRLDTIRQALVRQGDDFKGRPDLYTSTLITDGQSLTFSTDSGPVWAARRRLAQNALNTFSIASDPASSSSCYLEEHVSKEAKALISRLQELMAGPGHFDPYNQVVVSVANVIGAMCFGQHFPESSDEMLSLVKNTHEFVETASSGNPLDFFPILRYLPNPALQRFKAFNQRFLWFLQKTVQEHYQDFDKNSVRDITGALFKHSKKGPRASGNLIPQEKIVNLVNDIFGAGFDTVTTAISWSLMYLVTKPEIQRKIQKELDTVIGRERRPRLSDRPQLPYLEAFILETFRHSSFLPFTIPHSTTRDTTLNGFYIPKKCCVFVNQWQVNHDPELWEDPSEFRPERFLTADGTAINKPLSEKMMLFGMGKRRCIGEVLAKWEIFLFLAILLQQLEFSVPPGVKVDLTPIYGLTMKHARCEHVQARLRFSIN

[39] = target: Cytochrome P450 2C9 (Homo sapiens, UniProt P11712); experiment: Inhibition of CYP2C9 in human liver microsomes using tolbutamide as substrate preincubated for 10 mins followed by NADPH addition and measured for 15 mins by LC-MS/MS analysis; type: ADME
[40] = target: T2, Cytochrome P450 3A4 (Homo sapiens, UniProt P08684); experiment: Inhibition of CYP3A4 in human liver microsomes using midazolam as substrate preincubated for 10 mins followed by NADPH addition and measured for 15 mins by LC-MS/MS analysis; type: ADME
[41] = Volume of distribution at steady state in Beagle dog at 2.5 mg/kg, iv by LC-MS/MS analysis; type: ADME, organism-based, Canis lupus familiaris; settings: in vivo, read-out: Vdss
[42] = target: Cytochrome P450 2C19 (Homo sapiens, UniProt P33261); experiment: Inhibition of CYP2C19 in human liver microsomes using mephenytoin as substrate preincubated for 10 mins followed by NADPH addition and measured for 15 mins by LC-MS/MS analysis; type: ADME
[43] = target: T2, Cytochrome P450 3A4; experiment: Inhibition of CYP3A4 in human liver microsomes using testosterone as substrate preincubated for 10 mins followed by NADPH addition and measured for 15 mins by LC-MS/MS analysis; type: ADME
[44] = Elimination half life in Sprague-Dawley rat at 100 mg/kg, po by LC-MS/MS analysis; type: ADME, organism-based; settings: in vivo, read-out: beta t1/2 (converted)
[45] = Cmax in Sprague-Dawley rat at 10 mg/kg, po by LC-MS/MS analysis; type: ADME, organism-based; design: dose 10 mg/kg, route oral; settings: in vivo
[46] = Clearance in Sprague-Dawley rat at 10 mg/kg, iv by LC-MS/MS analysis; type: ADME, organism-based; settings: in vivo
[47] = AUCt in Beagle dog at 5 mg/kg, po by LC-MS/MS analysis; type: ADME, organism-based, Canis lupus familiaris; settings: in vivo
[48] = Elimination half life in Sprague-Dawley rat at 10 mg/kg, iv by LC-MS/MS analysis; type: ADME, organism-based; settings: in vivo, read-out: beta t1/2 (converted)

T2 sequence (P08684 whole entry): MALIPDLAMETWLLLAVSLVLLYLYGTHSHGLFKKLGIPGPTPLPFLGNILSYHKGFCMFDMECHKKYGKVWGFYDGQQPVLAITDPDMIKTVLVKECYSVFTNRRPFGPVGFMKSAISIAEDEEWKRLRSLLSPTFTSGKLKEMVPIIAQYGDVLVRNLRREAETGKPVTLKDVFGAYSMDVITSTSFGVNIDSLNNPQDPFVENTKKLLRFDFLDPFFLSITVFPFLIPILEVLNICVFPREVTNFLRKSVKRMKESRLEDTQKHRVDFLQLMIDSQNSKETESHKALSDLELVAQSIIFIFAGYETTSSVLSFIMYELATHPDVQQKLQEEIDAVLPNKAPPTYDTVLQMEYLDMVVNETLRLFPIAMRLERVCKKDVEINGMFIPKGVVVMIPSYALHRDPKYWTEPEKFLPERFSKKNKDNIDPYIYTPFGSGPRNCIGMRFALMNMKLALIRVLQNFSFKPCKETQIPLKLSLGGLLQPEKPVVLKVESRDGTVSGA
Chain of DNA topoisomerase 2-alpha (P11388 whole entry): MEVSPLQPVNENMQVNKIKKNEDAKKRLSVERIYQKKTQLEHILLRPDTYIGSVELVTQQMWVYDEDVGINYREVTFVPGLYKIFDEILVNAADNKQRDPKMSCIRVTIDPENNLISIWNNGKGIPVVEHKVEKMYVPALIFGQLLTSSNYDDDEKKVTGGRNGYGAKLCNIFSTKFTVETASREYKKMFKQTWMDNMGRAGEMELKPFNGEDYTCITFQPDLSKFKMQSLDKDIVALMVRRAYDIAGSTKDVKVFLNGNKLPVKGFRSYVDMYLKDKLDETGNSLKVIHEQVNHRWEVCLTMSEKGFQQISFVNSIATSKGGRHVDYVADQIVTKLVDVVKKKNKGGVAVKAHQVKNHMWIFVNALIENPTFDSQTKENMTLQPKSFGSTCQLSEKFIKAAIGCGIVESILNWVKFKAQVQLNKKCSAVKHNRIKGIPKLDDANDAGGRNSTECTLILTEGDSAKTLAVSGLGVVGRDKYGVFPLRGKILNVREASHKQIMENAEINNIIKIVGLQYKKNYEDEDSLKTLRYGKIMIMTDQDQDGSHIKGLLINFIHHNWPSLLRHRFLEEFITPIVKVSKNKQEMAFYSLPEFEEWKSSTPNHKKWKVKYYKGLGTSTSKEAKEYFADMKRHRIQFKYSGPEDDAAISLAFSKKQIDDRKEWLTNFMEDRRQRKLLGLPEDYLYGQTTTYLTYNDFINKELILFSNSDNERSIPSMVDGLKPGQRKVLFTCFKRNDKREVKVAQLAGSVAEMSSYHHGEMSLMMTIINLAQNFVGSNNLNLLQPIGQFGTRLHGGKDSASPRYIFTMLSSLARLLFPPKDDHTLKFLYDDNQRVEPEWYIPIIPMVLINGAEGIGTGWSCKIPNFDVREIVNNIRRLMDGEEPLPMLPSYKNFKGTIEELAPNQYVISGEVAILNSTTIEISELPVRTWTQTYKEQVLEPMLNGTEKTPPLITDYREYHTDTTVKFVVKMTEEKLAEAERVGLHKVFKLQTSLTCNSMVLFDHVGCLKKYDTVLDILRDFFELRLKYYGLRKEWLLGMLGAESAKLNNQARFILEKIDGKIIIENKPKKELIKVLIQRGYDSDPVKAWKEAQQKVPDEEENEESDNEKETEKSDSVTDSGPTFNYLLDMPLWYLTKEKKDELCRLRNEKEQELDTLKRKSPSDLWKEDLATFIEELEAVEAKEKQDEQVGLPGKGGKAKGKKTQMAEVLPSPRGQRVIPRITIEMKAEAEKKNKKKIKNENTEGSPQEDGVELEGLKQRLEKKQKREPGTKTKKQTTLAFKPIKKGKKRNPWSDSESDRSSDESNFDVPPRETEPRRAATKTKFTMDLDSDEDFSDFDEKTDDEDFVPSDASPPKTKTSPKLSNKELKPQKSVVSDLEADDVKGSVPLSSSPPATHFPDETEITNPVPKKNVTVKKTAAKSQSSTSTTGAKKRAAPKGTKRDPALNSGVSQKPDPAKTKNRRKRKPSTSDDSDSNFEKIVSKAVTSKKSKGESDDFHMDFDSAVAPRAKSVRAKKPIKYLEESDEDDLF
Chain of DNA gyrase (P0A0K8 whole entry): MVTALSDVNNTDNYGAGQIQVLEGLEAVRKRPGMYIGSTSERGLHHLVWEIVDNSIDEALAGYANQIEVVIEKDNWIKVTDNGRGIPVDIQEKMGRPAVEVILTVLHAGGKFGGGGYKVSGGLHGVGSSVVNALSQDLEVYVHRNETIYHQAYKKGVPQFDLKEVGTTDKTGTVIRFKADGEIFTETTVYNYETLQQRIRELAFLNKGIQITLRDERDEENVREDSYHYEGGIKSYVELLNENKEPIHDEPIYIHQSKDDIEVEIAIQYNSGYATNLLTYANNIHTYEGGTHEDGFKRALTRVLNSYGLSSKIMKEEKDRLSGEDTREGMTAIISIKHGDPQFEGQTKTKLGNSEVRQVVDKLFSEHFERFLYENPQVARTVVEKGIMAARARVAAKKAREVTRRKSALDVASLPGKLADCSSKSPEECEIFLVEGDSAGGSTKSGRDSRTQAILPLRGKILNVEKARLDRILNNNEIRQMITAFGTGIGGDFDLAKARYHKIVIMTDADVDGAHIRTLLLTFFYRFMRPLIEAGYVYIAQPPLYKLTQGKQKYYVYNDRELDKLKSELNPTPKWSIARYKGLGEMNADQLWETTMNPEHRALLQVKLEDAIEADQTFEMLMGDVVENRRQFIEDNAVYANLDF
Chain of DNA gyrase (P20831 whole entry): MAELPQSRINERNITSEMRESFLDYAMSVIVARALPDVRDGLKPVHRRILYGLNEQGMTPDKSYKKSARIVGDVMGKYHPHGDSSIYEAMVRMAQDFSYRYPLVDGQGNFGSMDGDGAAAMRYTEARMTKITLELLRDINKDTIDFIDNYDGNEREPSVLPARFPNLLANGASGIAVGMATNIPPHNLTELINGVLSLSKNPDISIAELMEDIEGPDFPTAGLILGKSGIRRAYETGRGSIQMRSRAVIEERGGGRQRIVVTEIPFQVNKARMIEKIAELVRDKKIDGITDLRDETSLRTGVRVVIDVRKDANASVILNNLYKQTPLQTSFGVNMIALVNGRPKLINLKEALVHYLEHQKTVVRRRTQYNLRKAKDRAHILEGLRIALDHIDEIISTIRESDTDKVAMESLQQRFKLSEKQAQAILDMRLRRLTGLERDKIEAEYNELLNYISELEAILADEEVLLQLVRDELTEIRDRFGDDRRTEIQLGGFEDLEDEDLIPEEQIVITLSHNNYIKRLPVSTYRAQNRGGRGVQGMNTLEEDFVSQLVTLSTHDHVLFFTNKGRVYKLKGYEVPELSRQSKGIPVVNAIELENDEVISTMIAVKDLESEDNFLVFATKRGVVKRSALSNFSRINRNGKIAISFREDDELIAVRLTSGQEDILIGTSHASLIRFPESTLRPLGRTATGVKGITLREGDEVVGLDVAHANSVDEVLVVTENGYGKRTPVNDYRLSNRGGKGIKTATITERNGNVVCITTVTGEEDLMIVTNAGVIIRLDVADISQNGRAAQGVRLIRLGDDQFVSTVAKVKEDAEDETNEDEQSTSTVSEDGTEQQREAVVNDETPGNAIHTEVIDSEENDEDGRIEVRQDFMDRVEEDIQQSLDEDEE
Chain of Voltage-gated inwardly rectifying potassium channel KCNH2 (Q12809 whole entry): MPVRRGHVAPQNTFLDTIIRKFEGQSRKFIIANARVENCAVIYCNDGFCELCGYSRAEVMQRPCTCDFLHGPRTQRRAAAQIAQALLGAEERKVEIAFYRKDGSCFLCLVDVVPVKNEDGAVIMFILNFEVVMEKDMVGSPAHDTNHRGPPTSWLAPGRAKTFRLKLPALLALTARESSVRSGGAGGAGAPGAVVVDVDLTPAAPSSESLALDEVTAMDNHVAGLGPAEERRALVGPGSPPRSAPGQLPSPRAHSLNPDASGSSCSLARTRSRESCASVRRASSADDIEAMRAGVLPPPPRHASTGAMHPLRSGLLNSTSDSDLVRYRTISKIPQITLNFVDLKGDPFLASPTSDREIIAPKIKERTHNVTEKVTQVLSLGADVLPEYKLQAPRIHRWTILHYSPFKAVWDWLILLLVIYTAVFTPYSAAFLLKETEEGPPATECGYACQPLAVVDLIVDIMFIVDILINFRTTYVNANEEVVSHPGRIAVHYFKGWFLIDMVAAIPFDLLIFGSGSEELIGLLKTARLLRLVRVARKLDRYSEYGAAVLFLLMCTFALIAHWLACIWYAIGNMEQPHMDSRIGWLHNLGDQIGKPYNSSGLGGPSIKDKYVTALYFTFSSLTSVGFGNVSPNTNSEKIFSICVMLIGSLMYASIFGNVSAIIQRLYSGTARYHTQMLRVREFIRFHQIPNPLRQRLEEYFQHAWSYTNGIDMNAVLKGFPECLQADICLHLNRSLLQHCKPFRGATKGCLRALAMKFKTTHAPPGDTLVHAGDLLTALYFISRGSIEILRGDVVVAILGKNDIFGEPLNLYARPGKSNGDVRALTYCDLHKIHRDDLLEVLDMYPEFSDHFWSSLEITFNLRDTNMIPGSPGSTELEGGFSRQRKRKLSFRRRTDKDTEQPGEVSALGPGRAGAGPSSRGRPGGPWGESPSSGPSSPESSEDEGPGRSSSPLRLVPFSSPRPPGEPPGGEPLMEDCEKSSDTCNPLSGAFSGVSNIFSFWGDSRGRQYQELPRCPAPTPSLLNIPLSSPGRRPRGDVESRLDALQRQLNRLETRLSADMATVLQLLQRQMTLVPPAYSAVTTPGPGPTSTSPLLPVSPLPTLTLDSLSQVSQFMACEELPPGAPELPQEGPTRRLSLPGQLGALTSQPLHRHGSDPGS

C[C@@H]1CN2c3c(cc4c(N5CCOC5=O)noc4c3F)CC3(C(=O)NC(=O)NC3=O)[C@H]2[C@H](C)O1
pIC50 [1]: 4.61
solubility at 24 h [2]: 139 µM (≈ 65.8 µg/mL)
MIC [3]: 0.25 to 1 µg/mL (≈ 0.528 to 2.11 µM)
MIC [4]: 0.125 to 0.25 µg/mL (≈ 0.264 to 0.528 µM)
ED50 [5]: 11 mg/kg
MIC [6]: 0.03 to 1 µg/mL (≈ 0.0634 to 2.11 µM)
solubility at 24 h [7]: 128 µM (≈ 60.6 µg/mL)
MRT [8]: 7.06 h
pIC50 [9]: < 3.70
MIC [10]: 0.06 to 0.25 µg/mL (≈ 0.127 to 0.528 µM)
AUC(0-t) [11]: 748 ng·h/mL
solubility at 24 h [12]: 121 µM (≈ 57.3 µg/mL)
Cmax [13]: 183 ng/mL
half-life [14]: 3.41 h
Tmax [15]: 0.58 h
MIC50 [16]: 0.03 µg/mL (≈ 0.0634 µM)
MIC90 [16]: 0.125 µg/mL (≈ 0.264 µM)
MIC [17]: 0.03 to 0.25 µg/mL (≈ 0.0634 to 0.528 µM)
MIC ([18]; Streptococcus pyogenes, read-out: MIC): 0.25 to 0.5 µg/mL (≈ 0.528 to 1.06 µM)
ED50 [19]: 11.5 mg/kg

C[C@@H]1CN2c3c(cc4c(N5CC6(CC6)OC5=O)noc4c3F)CC3(C(=O)NC(=O)NC3=O)[C@H]2[C@H](C)O1
pIC50 [1]: 5.11
solubility at 24 h [2]: 204 µM (≈ 102 µg/mL)
half-life [20]: 3.71 h
MIC [4]: ≤ 0.03 µg/mL
half-life [21]: 3.49 h
solubility at 24 h [7]: 277 µM (≈ 138 µg/mL)
half-life [22]: 3.65 h
pIC50 [23]: < 4.40
AUC(0-t) [24]: 9100 ng·h/mL
Cmax [25]: 2860 ng/mL
bioavailability [26]: 96.6%
MRT [8]: 8.94 h
AUC(0-t) [27]: 478000 ng·h/mL
ED50 [28]: 8.37 mg/kg
pIC50 [9]: < 3.70
ED50 [29]: 3.87 mg/kg
Vd [30]: 0.482 L/kg
AUC(0-t) [11]: 24200 ng·h/mL
clearance [31]: 4.91 mL/min/kg
AUC(0-t) [32]: 23600 ng·h/mL
solubility at 24 h [12]: 151 µM (≈ 75.4 µg/mL)
bioavailability [33]: 22.6%
Cmax [34]: 35400 ng/mL
pIC50 [35]: < 4.60
Cmax [13]: 2580 ng/mL
bioavailability [36]: 45.8%
AUC(0-t) [37]: 104000 ng·h/mL
half-life [14]: 6.2 h
Tmax [15]: 2.67 h
MIC50 [16]: 0.06 µg/mL (≈ 0.12 µM)
MIC90 [16]: 0.125 µg/mL (≈ 0.25 µM)
pIC50 [38]: 4.89
pIC50 [39]: < 4.60
pIC50 [40]: < 4.60
Vd [41]: 1 L/kg
pIC50 [42]: < 4.60
pIC50 [43]: < 4.60
half-life [44]: 5.58 h
Cmax [45]: 2260 ng/mL
MIC [18]: <0.03 µg/mL
clearance [46]: 1.57 mL/min/kg
AUC(0-t) [47]: 17500 ng·h/mL
half-life [48]: 3.82 h
